Experimental data taken from publication PMC5712521, “Dendrogenin A drives LXR to trigger lethal autophagy in cancers” (Nature Communications, 2017).

Assays:
B16F10 cells = experiment: Sterol analysis by GC/MS; type: cell-based, mouse; conditions: B16F10, 24 h, 10 µM 22(R)HC, 1 µM GW, 100 nM TO
Protocol: Sterols in cell homogenates were extracted with a solvent mixture containing chloroform/methanol 2/1 (v/v) spiked with epicoprostanol as the internal standard. Lipids were partitioned in chloroform after the addition of saline and saponified by methanolic potassium hydroxide (0.5 N, 60 °C, 15 min). The fatty acids released were methylated with BF3-methanol (12%, 60 °C, 15 min) to not interfere with the chromatography of sterols. The sterols were re-extracted in hexane and silylated, as described previously. The trimethylsilylether derivatives of the sterols were separated by gas chromatography (GC) (Hewlett–Packard 6890 series) in a medium polarity capillary column RTX-65, (65% diphenyl 35% dimethyl polysiloxane, length 30 m, diameter 0.32 mm, film thickness 0.25 μm (Restesk, Evry, France)). The mass spectrometer (Agilent 5975 inert XL) in series with the GC was set up for the detection of positive ions. Ions were produced in the electron impact mode at 70 eV. Sterols were identified by the fragmentogram in the scanning mode and quantified by selective monitoring of the specific ions after normalization with the internal standard epicoprostanol and calibration with weighed standards. […]
Anal yses were perform ed by GC/MS. f Quantification of sterols accumulated in
m elanom a cells after 24 h treatm ent with 10 µM 22(R) HC, 1 µ M GW , 100 nM T O or solvent
vehicle. […]

SKMEL-28 cells = experiment: RT-qPCR of LXR-responsive genes; type: cell-based, human; conditions: 8 h, 2.5 µM DDA, 10 µM 22(R)HC, 1 µM GW, 100 nM TO, vs vehicle
Protocol: Total RNA was extracted from tumor cells or MEFs using an RNA Extraction kit (Qiagen) or Trizol (Invitrogen), respectively, and was quantified with NanoDrop. Complementary DNA (cDNA) synthesis was performed with 1 μg RNA iScript Reverse Transcriptase (Bio-Rad). 25 ng cDNA was amplified using SyBR Supermix (Bio-Rad). RNA expression of the different genes of interest (Supplementary Tables 1, 2) were determined using the ΔΔCT method, where the difference in the threshold cycle (ΔCT) values of the target gene and the housekeeping gene for each sample was normalized to the ΔCT value of the untreated sample.
Supplementary Fig. 4. a R egulat ion of LXR-responsive genes b y D DA and other k nown LXR
ligands in B16F10 and SKMEL- 28 cells transfected with s iRN A targeting LXRβ ( siLXRβ) or
with contro l siRN A scram ble (siSC). Cells were treated for 8 h with either solvent vehicle, 2.5
µM DD A, 10 µM 22(R) hydrox ycholesterol (22(R)HC), 1 µM GW 3965 (GW ) or 100 nM
T O901317 (T O). […]

Compound | ABCA1 mRNA (SKMEL-28 cells; SKMEL-28, siCT) | ABCG1 mRNA (SKMEL-28 cells; SKMEL-28, siCT) | ABCG5 mRNA (SKMEL-28 cells; SKMEL-28, siCT) | ABCG8 mRNA (SKMEL-28 cells; SKMEL-28, siCT) | LC3A mRNA (SKMEL-28 cells; SKMEL-28, siCT) | LC3B mRNA (SKMEL-28 cells; SKMEL-28, siCT) | LDLR mRNA (SKMEL-28 cells; SKMEL-28, siCT) | NOR1 mRNA (SKMEL-28 cells; SKMEL-28, siCT) | Nur77 mRNA (SKMEL-28 cells; SKMEL-28, siCT) | SCD1 mRNA (SKMEL-28 cells; SKMEL-28, siCT) | SREBP1 mRNA (SKMEL-28 cells; SKMEL-28, siCT) | SULT2B1b mRNA (SKMEL-28 cells; SKMEL-28, siCT) | ABCA1 mRNA (SKMEL-28 cells; SKMEL-28, siLXRβ) | ABCG1 mRNA (SKMEL-28 cells; SKMEL-28, siLXRβ) | ABCG5 mRNA (SKMEL-28 cells; SKMEL-28, siLXRβ) | ABCG8 mRNA (SKMEL-28 cells; SKMEL-28, siLXRβ) | LC3A mRNA (SKMEL-28 cells; SKMEL-28, siLXRβ) | LC3B mRNA (SKMEL-28 cells; SKMEL-28, siLXRβ) | LDLR mRNA (SKMEL-28 cells; SKMEL-28, siLXRβ) | NOR1 mRNA (SKMEL-28 cells; SKMEL-28, siLXRβ) | other results
CC(C)CC[C@@H](O)[C@@H](C)[C@H]1CC[C@H]2[C@@H]3CC=C4C[C@@H](O)CC[C@]4(C)[C@H]3CC[C@]12C [22(R)HC, 22(R)-hydroxycholesterol] | 6.5±0.1 fold | 2.1±0.2 fold | 4.5±0.1 fold | 0.4±0.1 fold | 1.0±0.2 fold | 0.9±0.2 fold | 0.4±0.1 fold | 1.8±0.1 fold | 1.6±0.2 fold | 1.0±0.2 fold | 2.3±0.2 fold | 1.9±0.1 fold | 1.5±0.1 fold | 0.2±0.1 fold | 1.7±0.3 fold | 0.7±0.2 fold | 1.0±0.2 fold | 1.0±0.1 fold | 1.1±0.1 fold | 1.2±0.2 fold | Sterol amount/total sterol: 8-DHC (B16F10 cells): 0.08± 0.006; Sterol amount/total sterol: zymostenol (B16F10 cells): 0.24± 0.08; Nur77 mRNA (SKMEL-28 cells; SKMEL-28, siLXRβ): 0.8±0.2 fold; SCD1 mRNA (SKMEL-28 cells; SKMEL-28, siLXRβ): 0.8±0.1 fold; SREBP1 mRNA (SKMEL-28 cells; SKMEL-28, siLXRβ): 0.9±0.3 fold; SULT2B1b mRNA (SKMEL-28 cells; SKMEL-28, siLXRβ): 1.0±0.2 fold
CC(C)CCC[C@@H](C)[C@H]1CC[C@H]2[C@@H]3C[C@@H](NCCc4cnc[nH]4)[C@@]4(O)C[C@@H](O)CC[C@]4(C)[C@H]3CC[C@]12C [DDA, Dendrogenin A] | 0.4±0.1 fold | 1.0±0.1 fold | 3.9±0.4 fold | 0.2±0.1 fold | 1.7±0.2 fold | 1.6±0.1 fold | 3.2±0.3 fold | 4.8±0.2 fold | 8.2±0.2 fold | 2.2±0.2 fold | 0.9±0.2 fold | 2.9±0.1 fold | 0.9±0.1 fold | 0.8±0.2 fold | 1.1±0.2 fold | 0.7±0.2 fold | 0.8±0.2 fold | 0.9±0.3 fold | 1.8±0.2 fold | 1.0±0.1 fold | Nur77 mRNA (SKMEL-28 cells; SKMEL-28, siLXRβ): 1.2±0.2 fold; SCD1 mRNA (SKMEL-28 cells; SKMEL-28, siLXRβ): 1.2±0.1 fold; SREBP1 mRNA (SKMEL-28 cells; SKMEL-28, siLXRβ): 1.0±0.3 fold; SULT2B1b mRNA (SKMEL-28 cells; SKMEL-28, siLXRβ): 1.1±0.2 fold
O=C(O)Cc1cccc(OCCCN(Cc2cccc(C(F)(F)F)c2Cl)CC(c2ccccc2)c2ccccc2)c1 [GW, GW3965] | 15.1±2 fold | 3.2±0.5 fold | 3.1±0.5 fold | 1.5±0.1 fold | 0.8±0.2 fold | 0.9±0.1 fold | 1.0±0.2 fold | 1.5±0.1 fold | 0.7±0.2 fold | 1.6±0.1 fold | 2.6±0.3 fold | 2.8±0.1 fold | 2.2±0.3 fold | 1.2±0.1 fold | 1.1±0.1 fold | 0.8±0.1 fold | 1.0±0.3 fold | 1.1±0.3 fold | 0.9±0.1 fold | 0.8±0.1 fold | Sterol amount/total sterol: 8-DHC (B16F10 cells): 0.05± 0.005; Sterol amount/total sterol: zymostenol (B16F10 cells): 0.11 ± 0.08; Nur77 mRNA (SKMEL-28 cells; SKMEL-28, siLXRβ): 0.9±0.2 fold; SCD1 mRNA (SKMEL-28 cells; SKMEL-28, siLXRβ): 1.1±0.1 fold; SREBP1 mRNA (SKMEL-28 cells; SKMEL-28, siLXRβ): 1.5±0.2 fold; SULT2B1b mRNA (SKMEL-28 cells; SKMEL-28, siLXRβ): 1.1±0.2 fold
O=S(=O)(c1ccccc1)N(CC(F)(F)F)c1ccc(C(O)(C(F)(F)F)C(F)(F)F)cc1 [TO, TO901317] | 4.2±1.2 fold | 2.8±0.5 fold | 3.1±0.5 fold | 1.5±0.1 fold | 0.8±0.1 fold | 0.9±0.2 fold | 1.0±0.2 fold | 1.7±0.1 fold | 1.1±0.2 fold | 1.8±0.2 fold | 1.8±0.3 fold | 1.8±0.2 fold | 2.2±0.3 fold | 1.1±0.2 fold | 1.1±0.1 fold | 0.8±0.1 fold | 0.9±0.1 fold | 0.9±0.1 fold | 0.9±0.1 fold | 1.0±0.2 fold | Sterol amount/total sterol: 8-DHC (B16F10 cells): 0.04± 0.005; Sterol amount/total sterol: zymostenol (B16F10 cells): 0.12± 0.09; Nur77 mRNA (SKMEL-28 cells; SKMEL-28, siLXRβ): 1.1±0.2 fold; SCD1 mRNA (SKMEL-28 cells; SKMEL-28, siLXRβ): 1.2±0.2 fold; SREBP1 mRNA (SKMEL-28 cells; SKMEL-28, siLXRβ): 1.3±0.2 fold; SULT2B1b mRNA (SKMEL-28 cells; SKMEL-28, siLXRβ): 1.3±0.2 fold
